According to patent US10227331B2 (priority 2015, dated 2019):

What was measured:
[1] = tested on: Serratia marcescens expressing IMP-1 (CL5741); assay type: cell-based; details: with imipenem 1 μg/ml; 95% inhibition of bacterial growth
Outline: (§1)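 Restoration of imipenem susceptibility (1 μg/ml imipenem) was judged by absorbance after 22–24 h at 35° C. Test compound was added to bacteria suspended 1:100 in 1.1× CAMHB from overnight blood-agar cultures.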

[2] = tested on: Klebsiella pneumoniae expressing VIM-1 (IHMA599644); assay type: cell-based; details: with imipenem 1 μg/ml; 95% inhibition of bacterial growth
Outline: as §1

[3] = tested on: Escherichia coli expressing NDM-1 (CLB30005, CLB30016); assay type: cell-based; details: with imipenem 1 μg/ml; 95% inhibition of bacterial growth
Outline: as §1

[4] = tested on: P. aeruginosa expressing IMP-1, efflux− (MB9799); experiment: Efflux: concentration of MBL inhibitor which restores susceptibility to imipenem; assay type: cell-based, Pseudomonas aeruginosa; details: imipenem at 2 μg/mL, in the presence of a class A, C, D serine β-lactamase inhibitor closely related to relebactam
Description: (§2) The strain background is Pseudomonas aeruginosa PAO1.

VIM-1 = VIM-1 (Pseudomonas aeruginosa (strain ATCC 15692 / DSM 22644 / CIP 104116 / JCM 14847 / LMG 12228 / 1C / PRS 101 / PAO1), UniProt A0A0F7KYQ8); experiment: biochemical; details: CCF2-FA substrate, 2 hours at 25° C
Outline: (§3)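 Semi-log dose-response curves, fitted with a 4-parameter model, gave IC50s. The underlying signal was CCF2-FA fluorescence following 2 hours at 25° C with enzyme, substrate and inhibitor combined.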

[5] = tested on: P. aeruginosa expressing IMP-1, efflux+ (MB9798); assay type: cell-based, Pseudomonas aeruginosa; details: for P. aeruginosa expressing IMP-1, efflux+ (MB9798) MITC95: imipenem at 2 μg/mL, in the presence of a class A, C, D serine β-lactamase inhibitor closely related to relebactam; for Efflux ratio: ratio MITC95 PA_9798/MITC95 PA_9799
Description: as §2

IMP-1 = IMP-1 (Serratia marcescens, UniProt P52699); experiment: biochemical; assay type: biochemical; details: CCF2-FA substrate, 2 hours at 25° C; read-out: IMP-1 IC50
Chain of IMP-1 (P52699 whole entry, looked up, species assumed): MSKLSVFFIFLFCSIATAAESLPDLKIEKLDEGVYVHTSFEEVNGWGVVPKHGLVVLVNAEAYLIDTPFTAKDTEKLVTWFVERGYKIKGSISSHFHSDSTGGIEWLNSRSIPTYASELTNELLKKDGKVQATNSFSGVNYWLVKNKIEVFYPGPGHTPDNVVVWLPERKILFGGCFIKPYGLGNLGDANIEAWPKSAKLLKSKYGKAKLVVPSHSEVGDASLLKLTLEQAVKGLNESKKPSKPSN
Outline: as §3

NDM-1 = NDM-1 (Klebsiella pneumoniae, UniProt C7C422); experiment: biochemical; assay type: biochemical; details: CCF2-FA substrate, 2 hours at 25° C; read-out: NDM-1 IC50
Chain of NDM-1 (C7C422 whole entry, looked up, species assumed): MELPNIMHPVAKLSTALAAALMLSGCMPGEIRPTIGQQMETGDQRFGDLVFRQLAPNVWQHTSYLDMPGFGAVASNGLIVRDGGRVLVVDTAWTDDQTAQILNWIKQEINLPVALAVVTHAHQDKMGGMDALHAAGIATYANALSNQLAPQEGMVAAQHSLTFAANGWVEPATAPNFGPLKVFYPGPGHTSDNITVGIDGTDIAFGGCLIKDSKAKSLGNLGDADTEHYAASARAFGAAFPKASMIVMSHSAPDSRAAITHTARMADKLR
Outline: as §3

SMILES | Serratia marcescens expressing IMP-1 (CL5741) MITC95 [1] | Klebsiella pneumoniae expressing VIM-1 (IHMA599644) MITC95 [2] | Escherichia coli expressing NDM-1 (CLB30016) MITC95 [3] | P. aeruginosa expressing IMP-1, efflux− (MB9799) MITC95 [4] | IC50 (VIM-1) | P. aeruginosa expressing IMP-1, efflux+ (MB9798) MITC95 [5] | Efflux ratio [5] | IC50 (IMP-1) | IC50 (NDM-1)
NS(=O)(=O)c1c(S(=O)(=O)C2CNC2)ccc(-c2cccc3cccnc23)c1-c1nnn[nH]1.O=C(O)C(F)(F)F [Example 128, 3-((4-(quinolin-8-yl)-2-sulfamoyl-3-(1H-tetrazol-5-yl)phenyl)sulfonyl)azetidin-1-ium 2,2,2-trifluoroacetate] | 3.125 µM | 3.125 µM | 1.563 µM | 1.563 µM | 0.314 nM | 3.125 µM | 2.00 | 0.524 nM | 0.134 nM
NS(=O)(=O)c1c(S(=O)(=O)C2CNC2)ccc(-c2cnn3c2CCCC3)c1-c1nnn[nH]1.O=C(O)C(F)(F)F [Example 129, 3-((2-sulfamoyl-4-(4,5,6,7-tetrahydropyrazolo[1,5-a]pyridin-3-yl)-3-(1H-tetrazol-5-yl)phenyl)sulfonyl)azetidin-1-ium 2,2,2-trifluoroacetate] | 6.25 µM | 6.25 µM | 6.25 µM | 1.563 µM | 1.24 nM | 25 µM | 15.99 | 2.63 nM | 0.647 nM
Cn1ncc2cccc(-c3ccc(S(=O)(=O)C4CNC4)c(S(N)(=O)=O)c3-c3nnn[nH]3)c21.O=C(O)C(F)(F)F [Example 130, 3-((4-(1-methyl-1H-indazol-7-yl)-2-sulfamoyl-3-(1H-tetrazol-5-yl)phenyl)sulfonyl)azetidin-1-ium 2,2,2-trifluoroacetate] | 6.25 µM | 6.25 µM | 1.563 µM | 3.125 µM | 0.248 nM | 12.5 µM | 4.00 | 1.69 nM | 0.23 nM
NS(=O)(=O)c1c(S(=O)(=O)C2CNC2)ccc(-c2ccc3ccncc3c2)c1-c1nnn[nH]1.O=C(O)C(F)(F)F [Example 131, 3-((4-(isoquinolin-7-yl)-2-sulfamoyl-3-(1H-tetrazol-5-yl)phenyl)sulfonyl)azetidin-1-ium 2,2,2-trifluoroacetate] | 3.125 µM | 3.125 µM | 0.7813 µM | 1.563 µM | 0.13 nM | 25 µM | 15.99 | 0.51 nM | 0.345 nM
N#CC1(c2ccc(-c3ccc(S(=O)(=O)CCN)c(S(N)(=O)=O)c3-c3nnn[nH]3)cn2)CNC1.O=C(O)C(F)(F)F [Example 132, 2-((4-(6-(3-cyanoazetidin-3-yl)pyridin-3-yl)-2-sulfamoyl-3-(1H-tetrazol-5-yl)phenyl)sulfonyl)ethanaminium 2,2,2-trifluoroacetate] | 1.563 µM | 3.125 µM | 0.7813 µM | 1.563 µM | 1.55 nM | 6.25 µM | 4.00 | 1.49 nM | 3.5 nM
Cc1nnc2ccc(-c3ccc(S(=O)(=O)CCN)c(S(N)(=O)=O)c3-c3nnn[nH]3)cn12.O=C(O)C(F)(F)F [Example 133, 2-((4-(3-methyl-[1,2,4]triazolo[4,3-a]pyridin-6-yl)-2-sulfamoyl-3-(1H-tetrazol-5-yl)phenyl)sulfonyl)ethanaminium 2,2,2-trifluoroacetate] | 6.25 µM | 6.25 µM | 6.25 µM | 3.125 µM | 0.968 nM | 200 µM | 64.00 | 29.4 nM | 15.6 nM
NCCS(=O)(=O)c1ccc(-c2cnc3cccnc3c2)c(-c2nnn[nH]2)c1S(N)(=O)=O.O=C(O)C(F)(F)F [Example 134, 2-((4-(1,5-naphthyridin-3-yl)-2-sulfamoyl-3-(1H-tetrazol-5-yl)phenyl)sulfonyl)ethanaminium 2,2,2-trifluoroacetate] | 3.125 µM | 6.25 µM | 6.25 µM | 1.563 µM | 0.991 nM | 25 µM | 15.99 | 2.47 nM | 2.65 nM
CC(=O)Nc1ccc(-c2ccc(S(=O)(=O)CCN)c(S(N)(=O)=O)c2-c2nnn[nH]2)cn1.O=C(O)C(F)(F)F [Example 135, 2-((4-(6-acetamidopyridin-3-yl)-2-sulfamoyl-3-(1H-tetrazol-5-yl)phenyl)sulfonyl)ethanaminium 2,2,2-trifluoroacetate] | 3.125 µM | 6.25 µM | 0.7813 µM | 1.563 µM | 1.22 nM | 3.125 µM | 2.00 | 1.65 nM | 0.265 nM
NCCS(=O)(=O)c1ccc(-c2c[nH]c3nccnc23)c(-c2nnn[nH]2)c1S(N)(=O)=O.O=C(O)C(F)(F)F [Example 136, 2-((4-(5H-pyrrolo[2,3-b]pyrazin-7-yl)-2-sulfamoyl-3-(1H-tetrazol-5-yl)phenyl)sulfonyl)ethanaminium 2,2,2-trifluoroacetate] | 1.563 µM | 3.125 µM | 1.563 µM | 0.7813 µM | 1.19 nM | 12.5 µM | 16.00 | 1.72 nM | 2.14 nM
NCCS(=O)(=O)c1ccc(-c2cnc(O)nc2)c(-c2nnn[nH]2)c1S(N)(=O)=O.O=C(O)C(F)(F)F [Example 137, 2-((4-(2-hydroxypyrimidin-5-yl)-2-sulfamoyl-3-(1H-tetrazol-5-yl)phenyl)sulfonyl)ethanaminium 2,2,2-trifluoroacetate] | 1.563 µM | 3.125 µM | 0.7813 µM | 1.563 µM | 23.5 nM | 25 µM | 15.99 | 32.6 nM | 16.8 nM
NCCS(=O)(=O)c1ccc(-c2ccnc3ccccc23)c(-c2nnn[nH]2)c1S(N)(=O)=O.O=C(O)C(F)(F)F [Example 138, 2-((4-(quinolin-4-yl)-2-sulfamoyl-3-(1H-tetrazol-5-yl)phenyl)sulfonyl)ethanaminium 2,2,2-trifluoroacetate] | 3.125 µM | 6.25 µM | 1.563 µM | 1.563 µM | 0.41 nM | 6.25 µM | 4.00 | 1.28 nM | 0.8 nM
CNC(=O)c1ccc(-c2ccc(S(=O)(=O)CCN)c(S(N)(=O)=O)c2-c2nnn[nH]2)cn1.O=C(O)C(F)(F)F [Example 139, 2-((4-(6-(methylcarbamoyl)pyridin-3-yl)-2-sulfamoyl-3-(1H-tetrazol-5-yl)phenyl)sulfonyl)ethanaminium 2,2,2-trifluoroacetate] | 3.125 µM | 6.25 µM | 1.563 µM | 1.563 µM | 2.04 nM | 12.5 µM | 8.00 | 3.32 nM | 3.96 nM
